Results taken from patent US9468670B2, “Melatonin-based treatment and diagnosis of bile duct disease” (Texas A&M University System, priority 2011, dated 2016).
“Also recorded” adds a separate entry of the source.

Experiments:
large cholangiocytes = assay: PCNA expression and PKA, ERK1/2 phosphorylation (immunoblots) in purified large cholangiocytes from treated BDL rats; format: in vivo, rat
Description: Cholangiocyte proliferation was evaluated by immunoblots (Francis et al., 2008) by determination of PCNA protein expression (measured as ratio to b-actin protein expression) (Francis et al., 2008), and the phosphorylation of cAMP-dependent PKA and ERK1/2 (expressed as ratio to protein expression of the corresponding total proteins) in protein ([…]) from whole cell lysate from spleen (positive control) and large cholangiocytes from BDL rats treated with vehicle or melatonin. The intensity of the bands was determined by scanning video densitometry using the phospho-imager Storm 860 and the ImageQuant TL software version 2003.02 (GE Healthcare).

Mz-ChA-1 cells = assay: Mz-ChA-1 cholangiocarcinoma xenograft in nude mice: tumor size and immunohistochemistry of tumor sections; format: in vivo, nude (nu/nu) mice
Description: AANAT expression was assessed in liver biopsy samples from CCA patients and controls by immunohistochemistry, and in non-malignant cholangiocytes and intra- and extrahepatic CCA lines by qPCR and immunoblots. Melatonin secretion was assessed in the supernatant of normal and CCA lines, and serum and bile from controls and CCA patients by EIA. In the CCA line Mz-ChA-1 stably overexpressing AANAT, the expression of AANAT, melatonin secretion, and CCA proliferation were studied after 48 hr of incubation. In in vivo studies, Mz-ChA-1 cells were injected Sub Q into the hind flanks of nu/nu mice. Tumors were allowed to develop and volumes were measured for 41 days during treatment with saline or melatonin (4 mg/kg BW, IP 3×wk). Tumors were analyzed for AANAT, PCNA, CK-19 and Bax by qPCR and immunoblots. Tumor tissue sections were analyzed for TUNEL, and staining for AANAT, PCNA and CK-19.
Experiments were performed to evaluate the in vivo effect of melatonin on the growth of cholangiocarcinoma cell lines implanted in the flanks of athymic mice (Francis H et al., 2009). Male BALB/c 6-wk-old nude (nu/nu) mice (Taconic Farms. Hudson, N.Y.) were kept in a temperature-controlled environment (20-22° C.) with 12-hr light-dark cycles, fed ad libitum standard mouse chow, and with free access to drinking water. Mz-ChA-1 cells (5×10^6) were suspended in 0.2 ml of extracellular matrix gel and injected subcutaneously in the rear flanks of the nude mice. After the establishment of the tumor (one week with a tumor size of ˜5 mm^3) mice (n=4) were treated with vehicle (5% ethanol in water) or melatonin (4 mg/kg BW, dissolved in 5% aqueous ethanol solution) (Sewerynek et al., 1995) by IP injections three times a week. Tumor variables were measured three times a week by an electronic caliper, and volume was determined as follows: tumor volume (mm^3)=0.5×[length (mm)×width (mm)×height (mm)]. The measurements started from the first week when the tumor mass was established. After 43 days of treatment, were anesthetized with sodium pentobarbital (50 mg/kg BW IP) and tumor tissues were harvested from the flanks of the mice. Heart, liver, and kidney tissues were collected for evaluation of organ damage by H&E staining of paraffin-embedded sections ([…]). All experiments were conducted under the guidelines of the Scott & White and Texas A&M HSC IACUC Committee. Tumors were allowed to grow until maximum allowable tumor burden was reached as set forth by the Scott & White and Texas A&M HSC IACUC tumor burden policy. Tumor tissues were fixed for 4 hr in 10% buffered formalin and embedded in low-temperature fusion paraffin. Subsequently, sections (4-5 mm) were stained: (i) with H & E for evaluation of necrosis (Francis et al., 2009); and (ii) for PCNA (a marker of proliferation) (Francis et al., 2009), cleaved caspase-3 (for measurement of apoptosis) (Arai et al., 2005), AANAT, ASMT, melatonin, MT1 and MT2 by immunohistochemistry (Francis et al., 2009). Negative controls were obtained by staining the tumor sections with non-immune serum with the omission of the primary antibody. Semiquantitative analysis for these markers was evaluated by image-analysis software, Image-Pro Plus (Media Cybernetics, Silver Springs, Md.) (Lejeune et al., 2008). Three randomly chosen fields were calculated for statistics.

[1] = tested on: SR, CFTR, Cl−/HCO3− AE2, VEGF-A/C; assay: Expression of PCNA, SR, CFTR, Cl−/HCO3− AE2, VEGF-A/C in liver sections, liver tissue and cholangiocytes of Morpholino-treated rats; format: in vivo, rat; settings: normal rats, 1 week
Description: In separate experiments, normal rats treated with Vivo-Morpholino sequences of AANAT (5′-[…] (SEQ ID NO:1), to reduce the biliary expression of AANAT) or Morpholino mismatched (5′-[…] (SEQ ID NO:2)) (Gene Tools LCC) (1 mg/Kg BW/day) for 1 week via an implanted portal vein catheter. Serum, liver tissue, cholangiocytes, kidney, spleen, small intestine, stomach and heart were collected. Since our goal was to knock-down AANAT expression in the liver without inhibiting AANAT expression in other organs, we used a lower dose (1 mg/Kg/day) of Vivo-Morpholino than that described in the original study (3.0 mg/kg/day (Arora et al., 2002). This approach minimizes the amount of Vivo-Morpholino that circulates outside of the liver after slow infusion into the portal vein. See below for the surgical procedure for the implantation of the portal vein catheter by which AANAT Vivo-Morpholino or Morpholino mismatched was administered.
By real-time PCR (Francis et al., 2008), the expression of PCNA, SR, CFTR, Cl^−/HCO3^− AE2, VEGF-A/C was evaluated in total RNA from: (i) cholangiocytes from normal rats, and BDL rats treated with melatonin; and (ii) liver tissue and cholangiocytes from rats treated with mismatch or AANAT Vivo-Morpholino for 1 week. A ΔΔCT analysis was obtained using normal cholangiocytes or normal total liver as control samples (Francis et al., 2008). The primers for rat PCNA, SR, CFTR, Cl^−/HCO3^− AE2, VEGF-A/C (SABiosciences) were designed according to the NCBI GenBank Accession numbers: NM_022381 (PCNA); NM_031115 (SR); NM_017048 (Cl^−/HCO3^− AE2); XM_001059206 (CFTR); NM_031836 (VEGF-A); and NM_053653 (VEGF-C). The percentage of cholangiocytes positive for SR, CFTR, Cl^−/HCO3^− AE2 and VEGF-A/C was evaluated in liver sections: when 0%-5% of bile ducts were positive a negative score was assigned; a +/−score was assigned when 6%-10% of ducts were positive; a +score was assigned when 11%-30% of bile ducts were positive (Glaser et al., 2009).

[2] = tumor sections, semiquantitative immunohistochemistry

Molecule	PCNA expression in large cholangiocytes (large cholangiocytes; melatonin-treated BDL rats vs. BDL control rats)	Phosphorylation of cAMP-dependent PKA and ERK2 (but not ERK1) in large cholangiocytes (large cholangiocytes; melatonin-treated BDL rats vs. BDL controls)	Tumor size / xenograft tumor growth (Mz-ChA-1 cells; nude mice, melatonin 4 mg/kg BW IP three times a week vs. vehicle)	Necrosis (percentage of the whole field of section) (Mz-ChA-1 cells; tumor sections, H&E, 4 mg/kg BW IP three times a week)	AANAT (Mz-ChA-1 cells; [2])	ASMT (Mz-ChA-1 cells; [2])	Cleaved caspase-3 (Mz-ChA-1 cells; [2])	MT1 (Mz-ChA-1 cells; [2])	MT2 (Mz-ChA-1 cells; [2])	Melatonin (immunoreactivity) (Mz-ChA-1 cells; [2])	PCNA (Mz-ChA-1 cells; [2])	Immunoreactivity of cholangiocytes to CFTR [1]	Immunoreactivity of cholangiocytes to Cl−HCO3− AE2 [1]	Immunoreactivity of cholangiocytes to SR [1]	Immunoreactivity of cholangiocytes to VEGF-A [1]	Immunoreactivity of cholangiocytes to VEGF-C [1]
COc1ccc2[nH]cc(CCNC(C)=O)c2c1 [melatonin]	decreased	decreased	significant decrease; also recorded: significantly reduced	>75%^ψ	1584.52 ± 127	46051.09 ± 13063.04	4490.66 ± 1053.52	1847.76 ± 419.9	1417.96 ± 425.71	41231.48 ± 7634.43	0.25 ± 0.09 (% of total % of total nucleus	–	–	–	–	–
AANAT Vivo-Morpholino: Vivo-Morpholino sequence of AANAT 5′-GTTCCCCAGCTTTGGAAGTGGTCCC (SEQ ID NO:1), to reduce the biliary expression of AANAT (all phosphorodiamidate morpholino (PMO); Vivo-Morpholino delivery moiety attached, position not given here, further chemistry not fully specified)	–	–	–	–	–	–	–	–	–	–	–	+ (a +score was assigned when 11%-30% of bile ducts were positive)	+ (a +score was assigned when 11%-30% of bile ducts were positive)	+ (a +score was assigned when 11%-30% of bile ducts were positive)	+ (a +score was assigned when 11%-30% of bile ducts were positive)	+ (a +score was assigned when 11%-30% of bile ducts were positive)
